Data on 12 molecules can be found in patent US20250325687A1, “CONJUGATE COMPRISING TOLL-LIKE RECEPTOR AGONIST” (MABSOFT THERAPEUTICS (SHANGHAI) CO., LTD., priority 2022, published 2025).

One may read the EC50 as the concentration needed to bring the measured effect to its halfway point. Read a low EC50 as a more potent agent.

Assay [1] deals with T1, hTLR8 (human Toll-like receptor 8) (Homo sapiens, UniProt Q9NR97).
T1 construct: host or cells: HEK-Blue hTLR8 (HEK293-derived reporter cells)
T1 sequence (Q9NR97 27-1041): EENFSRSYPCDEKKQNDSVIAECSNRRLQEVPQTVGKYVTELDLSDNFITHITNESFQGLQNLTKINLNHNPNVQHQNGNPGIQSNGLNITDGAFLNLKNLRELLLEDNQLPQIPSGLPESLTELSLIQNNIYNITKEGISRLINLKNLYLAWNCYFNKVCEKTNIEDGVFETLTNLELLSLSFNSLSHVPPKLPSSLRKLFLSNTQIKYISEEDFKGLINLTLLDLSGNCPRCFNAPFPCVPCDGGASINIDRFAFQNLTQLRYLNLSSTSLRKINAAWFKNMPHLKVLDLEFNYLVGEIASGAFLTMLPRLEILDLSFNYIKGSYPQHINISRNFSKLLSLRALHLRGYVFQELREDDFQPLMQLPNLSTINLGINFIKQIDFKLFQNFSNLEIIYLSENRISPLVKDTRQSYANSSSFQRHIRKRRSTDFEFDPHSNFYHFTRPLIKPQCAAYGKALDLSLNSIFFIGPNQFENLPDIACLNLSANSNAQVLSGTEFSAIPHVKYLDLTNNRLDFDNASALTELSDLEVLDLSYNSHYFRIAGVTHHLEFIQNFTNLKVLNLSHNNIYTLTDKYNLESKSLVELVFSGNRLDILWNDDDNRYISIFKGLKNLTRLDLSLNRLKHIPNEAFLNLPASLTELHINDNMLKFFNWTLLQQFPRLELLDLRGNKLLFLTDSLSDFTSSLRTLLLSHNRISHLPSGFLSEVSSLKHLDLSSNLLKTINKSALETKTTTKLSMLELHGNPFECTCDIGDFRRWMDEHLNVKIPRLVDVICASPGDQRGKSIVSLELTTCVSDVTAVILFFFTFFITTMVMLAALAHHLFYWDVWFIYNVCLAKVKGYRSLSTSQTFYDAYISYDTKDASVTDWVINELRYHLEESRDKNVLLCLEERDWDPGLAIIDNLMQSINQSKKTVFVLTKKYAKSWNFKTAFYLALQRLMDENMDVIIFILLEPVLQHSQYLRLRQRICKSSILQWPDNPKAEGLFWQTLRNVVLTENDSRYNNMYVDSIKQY
In words: hTLR8 cell assay (HEK-Blue hTLR8 reporter cells). In kind it is cell-based. The following applies: 24 hours, OD 650 nm. The procedure:
(§1) The payload compounds of Formula (II′) were assayed to evaluate their agonistic activity on hTLR7 (human Toll-like receptor 7) and hTLR8 (human Toll-like receptor 8). Reporter cells lines (HEK-Blue hTLR7 and HEK-Blue hTLR8) were obtained from InvivoGen. Cells were cryopreserved in liquid nitrogen per supplier's instruction. Upon test, the cells were thawed, passaged and cultured in the growth media of DMEM supplemented with 10% fetal bovine serum, 1×NEAA, 1 mM Pyruvate, 2 mM glutamine, […] in the presence of the following antibiotics, as shown as Table 1. Test compounds (at desired concentrations diluted) were added to the 96-well assay plate, 0.5 μL per well. Reporter cells were harvested from the tissue culture flasks by incubation in PBS at 37° C. for two minutes after the media in the flask is removed and cells rinsed with PBS. Cells were counted and diluted in the HEK-Blue Detection media at 50000 cells/mL and incubated for 24 hours at 37° C., in a 5% CO2 humidified incubator. Then 20 μL of cell supernatant were added to the assay plate containing the 180 µL of QUANTI-Blue, incubated for 1 hour at 37° C. Optical density at 650 nm was analyzed using an Envision (Perkin Elmer) plate reader.

The target in assay [2] is T2, hTLR7 (human Toll-like receptor 7) (Homo sapiens, UniProt Q9NYK1).
T2 construct: host or cells: HEK-Blue hTLR7 (HEK293-derived reporter cells)
T2 sequence (Q9NYK1 27-1049): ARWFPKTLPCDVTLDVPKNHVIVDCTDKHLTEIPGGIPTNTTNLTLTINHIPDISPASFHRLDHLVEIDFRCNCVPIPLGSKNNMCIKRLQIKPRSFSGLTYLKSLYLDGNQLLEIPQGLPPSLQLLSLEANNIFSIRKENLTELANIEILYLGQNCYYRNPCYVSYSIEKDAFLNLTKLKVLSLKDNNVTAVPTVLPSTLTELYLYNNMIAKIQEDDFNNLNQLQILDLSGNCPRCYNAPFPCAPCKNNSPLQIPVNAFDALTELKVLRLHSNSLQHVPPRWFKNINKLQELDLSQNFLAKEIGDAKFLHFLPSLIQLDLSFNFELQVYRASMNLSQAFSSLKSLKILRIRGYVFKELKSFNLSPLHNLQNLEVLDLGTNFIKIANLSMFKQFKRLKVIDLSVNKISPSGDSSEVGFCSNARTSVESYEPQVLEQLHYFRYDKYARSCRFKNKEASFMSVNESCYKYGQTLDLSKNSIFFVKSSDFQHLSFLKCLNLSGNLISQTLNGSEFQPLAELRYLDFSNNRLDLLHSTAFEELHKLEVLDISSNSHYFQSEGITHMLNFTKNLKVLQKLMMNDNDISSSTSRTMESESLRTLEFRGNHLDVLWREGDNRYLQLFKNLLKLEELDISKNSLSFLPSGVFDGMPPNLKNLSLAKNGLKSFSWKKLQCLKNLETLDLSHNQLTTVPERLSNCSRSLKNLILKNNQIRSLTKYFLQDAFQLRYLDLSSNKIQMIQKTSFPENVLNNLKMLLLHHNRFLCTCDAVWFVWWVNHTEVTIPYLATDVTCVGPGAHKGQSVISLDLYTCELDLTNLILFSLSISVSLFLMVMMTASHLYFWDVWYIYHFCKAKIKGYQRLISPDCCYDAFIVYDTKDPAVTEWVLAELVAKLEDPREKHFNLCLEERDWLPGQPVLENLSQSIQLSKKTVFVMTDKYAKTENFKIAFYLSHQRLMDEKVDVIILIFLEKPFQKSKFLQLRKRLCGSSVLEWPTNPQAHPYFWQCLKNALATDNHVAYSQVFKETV
Nature of the assay: hTLR7 cell assay (HEK-Blue hTLR7 reporter cells). Format: cell-based. As to conditions: 24 hours, OD 650 nm. The procedure: as §1

As for `CCCC(C)c1nc2c(N)nc3cc(Cc4ccccc4)ccc3c2n1CC(C)(C)OCCN` (racemic) [Compound 28, 1-(2-(2-aminoethoxy)-2-methylpropyl)-7-benzyl-2-(pentan-2-yl)-1H-imidazo[4,5-c]quinolin-4-amine], the EC50 was below 5 µM in assay [1] and above 10 µM in assay [2].

With `CCOCc1nc2c(N)nc3cc(Cc4ccc(CN)cc4)ccc3c2n1CC(C)(C)O` [Compound 1, 1-(4-amino-7-(4-(aminomethyl)benzyl)-2-(ethoxymethyl)-1H-imidazo[4,5-c]quinolin-1-yl)-2-methylpropan-2-ol], the values for the EC50 in assay [1] and in assay [2] were above 20 µM and above 10 µM, respectively.

Consider `CCOCc1nc2c(N)nc3cc(Cc4cccc(CCN)c4)ccc3c2n1CC(C)(C)O` [Compound 5, 1-(4-amino-7-(3-(2-aminoethyl)benzyl)-2-(ethoxymethyl)-1H-imidazo[4,5-c]quinolin-1-yl)-2-methylpropan-2-ol], for which the concentration giving a half-maximal response (EC50) lay in the range of 5 to 20 µM in assay [1] and 1 to 10 µM in assay [2].

With `CCOCc1nc2c(N)nc3cc(Cc4ccc(C(=O)NCCN)cc4)ccc3c2n1CC(C)(C)O` [Compound 6, 4-((4-amino-2-(ethoxymethyl)-1-(2-hydroxy-2-methylpropyl)-1H-imidazo[4,5-c]quinolin-7-yl)methyl)-N-(2-aminoethyl)benzamide], the figures for the EC50 in assay [1] and in assay [2] were above 20 µM and above 10 µM, respectively.

Take `CCOCc1nc2c(N)nc3cc(Cc4ccc(NC(=O)NCCN)cc4)ccc3c2n1CC(C)(C)O` [Compound 7, 1-(4-((4-amino-2-(ethoxymethyl)-1-(2-hydroxy-2-methylpropyl)-1H-imidazo[4,5-c]quinolin-7-yl)methyl)phenyl)-3-(2-aminoethyl)urea]: the EC50 is 5 to 20 µM in assay [1] and above 10 µM in assay [2].

`CCCC(C)c1nc2c(N)nc3cc(Cc4ccc(CCN)cc4)ccc3c2n1CC(C)(C)O` (stereo not drawn) [Compound 8, 1-(4-amino-7-(4-(2-aminoethyl)benzyl)-2-(pentan-2-yl)-1H-imidazo[4,5-c]quinolin-1-yl)-2-methylpropan-2-ol]: the concentration for a half-maximal effect (EC50) in assay [1] was below 5 µM; in assay [2], 1 to 10 µM.

For the molecule `CCC[C@H](C)c1nc2c(N)nc3cc(Cc4ccc(CCN)cc4)ccc3c2n1CC(C)(C)O` [Compound 10, (S)-1-(4-amino-7-(4-(2-aminoethyl)benzyl)-2-(pentan-2-yl)-1H-imidazo[4,5-c]quinolin-1-yl)-2-methylpropan-2-ol], the EC50 in assay [1] is above 20 µM; in assay [2], above 10 µM.

`CCCC(C)c1nc2c(N)nc3cc(Cc4ccc(CCCN)cc4)ccc3c2n1CC(C)(C)O` (stereo not drawn) [Compound 11, 1-(4-amino-7-(4-(3-aminopropyl)benzyl)-2-(pentan-2-yl)-1H-imidazo[4,5-c]quinolin-1-yl)-2-methylpropan-2-ol]: the concentration giving a half-maximal response (EC50) in assay [1] is below 5 µM; in assay [2], 1 to 10 µM.

Turning to `CCCC(C)c1nc2c(N)nc3cc(Cc4cccc(CN)c4)ccc3c2n1CC(C)(C)O` (stereo not drawn) [Compound 12, 1-(4-amino-7-(3-(aminomethyl)benzyl)-2-(pentan-2-yl)-1H-imidazo[4,5-c]quinolin-1-yl)-2-methylpropan-2-ol], the EC50 in assay [1] is below 5 µM; in assay [2] it was 1 to 10 µM.

With `CCCC(C)c1nc2c(N)nc3cc(Cc4cccc(CCN)c4)ccc3c2n1CC(C)(C)O` (stereo not drawn) [Compound 13, 1-(4-amino-7-(3-(2-aminoethyl)benzyl)-2-(pentan-2-yl)-1H-imidazo[4,5-c]quinolin-1-yl)-2-methylpropan-2-ol], the results for the EC50 in assay [1] and in assay [2] were below 5 µM and 1 to 10 µM, respectively.

For `CCCC(C)c1nc2c(N)nc3cc(Cc4cccc(CCCN)c4)ccc3c2n1CC(C)(C)O` (stereo not drawn) [Compound 14, 1-(4-amino-7-(3-(3-aminopropyl)benzyl)-2-(pentan-2-yl)-1H-imidazo[4,5-c]quinolin-1-yl)-2-methylpropan-2-ol], the EC50 in assay [1] is 5 to 20 µM; in assay [2], 1 to 10 µM.

Consider `CCOCc1nc2c(N)nc3cc(Cc4ccc(CCN)cc4)ccc3c2n1CC(C)(C)OCCNC(=O)C(C)(C)N` [Compound 21], for which the EC50 in assay [1] was above 20 µM; in assay [2], below 1 µM.
